# From patent US7838288B2, “Modulators of odorant receptors” (Duke University, priority 2004, dated 2010)
# How the values were obtained:
# olfr62 = experiment: CRE-luciferase reporter gene assay, olfr62; assay type: cell-based, mouse; details: Hana3A cells
# Procedure: Four ORs (S6/79, S18, S46 and S50) previously assayed using other techniques (see, e.g., Malnic, B., et al. (1999) Cell 96, 713-723; herein incorporated by reference in its entirety) were tested against an assay panel of aliphatic alcohols, aldehydes and acids and some other odorants. Additionally, five “orphan” class I ORs (MOR23-1, MOR31-4, MOR31-6, MOR32-5 and MOR32-11) whose cognate ligands were unknown were tested. At a suprathreshold concentration of 100 uM, all these ORs were odorant selective, responding to only a small subset of the odorants tested (see FIG. 11A). This specificity was retained at lower, more physiologically relevant concentrations. Many of these ORs responded to odorants present in micromolar concentrations. The cell-surface expression of these ORs by living-cell immunofluorescence were evaluated. Some ORs (S18, MOR31-4, MOR31-6 and MOR32-5) were strongly expressed while other ORs (S6, S50, MOR23-1, MOR32-11) were weakly expressed (see FIG. 12). The present invention is not limited to a particular mechanism. Indeed, an understanding of the mechanism is not necessary to practice the present invention. […] Finally, two additional orphan class II ORs, MOR203-1 and olfr62, were tested against a panel of 139 odorants. […] Olfr62 responded to coumarine and piperonal (see FIG. 11C). […] When parental 293T cells for these ORs were used in this luciferase assay, little or no response to the odorants was observed. The present invention is not limited to a particular mechanism. Indeed, an understanding of the mechanism is not necessary to practice the present invention.
# Dual-Glo system (Promega) for luciferase assay was used. CRE-Luciferase (Stratagene) was used to measure the receptor activities. Renilla luciferase driven by constitutively active SV40 promoter (pRL-SV40: Promega) was used as an internal control. Cells were plated on poly-D-lysine coated 96 well plates (BIOCOAT, Beckton Dickinson). After 8 hours (for experiments shown in FIGS. 8B and 8C) or 12 hours (for experiments shown in FIG. 8D and FIG. 11) after transfection, the medium was replaced with CD293 chemically defined medium (Invitrogen) and the plates were incubated for one hour at 37 degrees C. The medium was replaced with 50 ul of odorant solutions dissolved in CD293 and incubated for 10 hours (for experiments shown in FIGS. 8B and 8C) or 4 hours (for experiments shown in FIG. 8D and FIG. 11) at 37 degrees C. The manufacture's protocol for measuring luciferase and Renilla luciferase activities was followed. Luminescence was measured using Wallac Victor 1420 (Perkin-Elmer). Normalized luciferase activity was calculated as [Luc (N)-Luc (0)]/RL (N), where Luc (N)=Luminescent count of a certain well, Luc (0)=Luminescent count without odorant for each OR, and RL (N)=Luminescent count of Renilla Luciferase of each well. For cAMP assays, cells were plated onto 24-well plate. […]. Prism software (Graphpad) was used for data analysis. […]
# [1] = test system: Eight other ORs located near the IVA locus; experiment: Luciferase assay, other ORs near the IVA locus; assay type: cell-based
# Source text: In experiments conducted during the course of the present invention, not only three class I ORs (S46, MOR23-1, MOR31-4) but also MOR203-1, a class II OR, responded to nonanoic acid. The present invention is not limited to a particular mechanism. Indeed, an understanding of the mechanism is not necessary to practice the present invention. […] Olfr62 is one of the closely related ORs located near or at the IVA locus, implicated in isovaleric acid sensation (see, e.g., Griff, I. C., and Reed, R. R. (1995) Cell 83, 407-414; Zhang, X., and Firestein, S. (2002) Nat Neurosci 5, 124-133; each herein incorporated by reference in their entireties). […] The present invention is not limited to a particular mechanism. Indeed, an understanding of the mechanism is not necessary to practice the present invention.
# Dual-Glo system (Promega) for luciferase assay was used. CRE-Luciferase (Stratagene) was used to measure the receptor activities. Renilla luciferase driven by constitutively active SV40 promoter (pRL-SV40: Promega) was used as an internal control. […] Luminescence was measured using Wallac Victor 1420 (Perkin-Elmer). Normalized luciferase activity was calculated as [Luc (N)-Luc (0)]/RL (N), where Luc (N)=Luminescent count of a certain well, Luc (0)=Luminescent count without odorant for each OR, and RL (N)=Luminescent count of Renilla Luciferase of each well. […]
compound,measurement,setting,value
"CC(C)CC(=O)O [isovaleric acid, Isovaleric acid]",response of olfr62 to odorant (luciferase),olfr62,did not respond
same,response of eight other ORs near the IVA locus to odorant,[1],none of them responded
